Laboratory results from US20250129103A1, “METHODS FOR TREATMENT OF CANCER” (Frontier Medicines Corporation, priority 2022, published 2025).
Values after ≈ are worked out from the molar mass of the structure shown.

How the values were obtained:
[1] = target: KRAS G12C (GMPPNP-loaded) and cRAF (Ras-binding domain) interaction (Homo sapiens (Human), UniProt P01116, C118S/C51S/C80L/G12C); assay: Inhibition of KRAS G12C and cRAF binding (AlphaScreen); conditions: KRAS G12C loaded with GMPPNP, cRaf RBD, 2 hours preincubation; read-out: Raf-1 RBD K-Ras IC50
Summary of the method: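 GMPPNP-loaded KRAS G12C in 25 mM Hepes pH 7.4, 150 mM NaCl, 5 mM MgCl2, 0.01% Triton X-100, 10 μM GMPPNP, 2% DMSO, preincubated with compound 2 h at room temperature. cRAF RBD plus AlphaScreen beads then added for 60-90 min; signal read at 570 nm.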

[2] = target: KRAS G12C (GMPPNP-loaded) and PI3Ka (Ras-binding domain) interaction (Homo sapiens (Human), UniProt P01116, C118S/C51S/C80L/G12C); assay: Inhibition of KRAS G12C and PI3Ka binding (AlphaScreen); conditions: KRAS G12C loaded with GMPPNP, PI3Ka RBD, 2 hours preincubation; read-out: PI3K RBD K-Ras IC50
Summary of the method: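 Biotin-AviTag Cys-light KRAS G12C (aa 1-169, C51S/C80L/C118S), GMPPNP-loaded, 1.5 nM, preincubated 2 h with compound, then His-tagged PI3Ka RBD (aa 157-300, 100 nM) plus AlphaScreen beads added for 60-90 min, RT. Buffer Hepes pH 7.4, 10 μM GMPPNP, 2% DMSO; 10-point 1:3 from 50 μM; 4-parameter IC50.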

[3] = Determination of logD (1-octanol / phosphate buffer pH 7.4); assay type: physicochemical; conditions: 1-octanol/phosphate buffer, pH 7.4, pH 7.4, 1-octanol/phosphate buffer; read-out: Log D, pH 7.4
Summary of the method: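 Shake-flask partition between 1-octanol and 100 mM phosphate buffer pH 7.4, each phase presaturated with the other overnight. Tubes shaken 1 h at 800 rpm, room temperature, then centrifuged. Both phases quantified by LCMS and logD calculated from the ratio.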

[4] = Determination of kinetic solubility (pH 7.4); assay type: physicochemical; conditions: phosphate buffer, pH 7.4, aqueous buffer, kinetic from dmso stock, 50 mM phosphate buffer pH 7.4, read-out: Ksol, pH 7.4
Summary of the method: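 Sample mixed with 50 mM phosphate buffer, pH 7.4, vortexed, then shaken 2 h at room temperature and centrifuged. Filtrate analysed by HPLC-UV and LC-MS/MS, with solubility read from peak areas against a standard calibration curve.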

Chain of KRAS G12C (GMPPNP-loaded) and PI3Ka (Ras-binding domain) interaction (P01116 other isoform, or with tags, fused parts or gaps G12C/C51S/C80L/C118S): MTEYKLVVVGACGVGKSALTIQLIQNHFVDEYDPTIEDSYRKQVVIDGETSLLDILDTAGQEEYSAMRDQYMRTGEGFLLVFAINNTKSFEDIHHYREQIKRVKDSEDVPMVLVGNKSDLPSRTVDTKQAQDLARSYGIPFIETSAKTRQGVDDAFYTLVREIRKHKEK
Chain of KRAS G12C (GMPPNP-loaded) and cRAF (Ras-binding domain) interaction (P01116 other isoform, or with tags, fused parts or gaps G12C/C51S/C80L/C118S): as above

Row | SMILES | IC50 [1] | IC50 [2] | logD [3] | solubility kinetic at 2 h [4]
1 | N#CC[C@H]1CN(c2nc(OC[C@@]34CCCN3C[C@H](F)C4)nc3c(F)c(-c4cccc5cccc(Cl)c45)ncc23)CCN1C(=O)/C=C/CN1CCOCC1 [Compound 48] | 0.01 to 0.1 µM | 0.01 to 0.1 µM | 2.71 | 110 µg/mL (≈ 148 µM)
2 | N#CC[C@H]1CN(c2nc(OC[C@@]34CCCN3C[C@H](F)C4)nc3c(F)c(-c4cccc5ccc(F)c(Cl)c45)ncc23)CCN1C(=O)/C=C/CN1C[C@H]2C[C@@H]1CO2 [Example 72, 2-((S)-1-((E)-4-((1R,4R)-2-oxa-5-azabicyclo[2.2.1]heptan-5-yl)but-2-enoyl)-4-(7-(8-chloro-7-fluoronaphthalen-1-yl)-8-fluoro-2-(((2R,7aS)-2-fluorotetrahydro-1H-pyrrolizin-7a(5H)-yl)methoxy)pyrido[4,3-d]pyrimidin-4-yl)piperazin-2-yl)acetonitrile] | < 0.01 µM | < 0.01 µM | 3.12 | 143 µg/mL (≈ 185 µM)
3 | N#CC[C@H]1CN(c2nc(OC[C@@]34CCCN3C[C@H](F)C4)nc3c2CCN(c2cccc4cccc(Cl)c24)C3)CCN1C(=O)/C=C/c1nc(C(F)F)no1 [Compound 18] | < 0.01 µM | < 0.01 µM | 4.78 | 0.01 µg/mL (≈ 0.0134 µM)
4 | CO[C@H]1CCN(C/C=C/C(=O)N2CCN(c3nc(OC[C@@]45CCCN4C[C@H](F)C5)nc4c(F)c(-c5cccc6cccc(Cl)c56)ncc34)C[C@@H]2CC#N)C1 [Compound 190] | < 0.01 µM | < 0.01 µM | 2.86 | 94.7 µg/mL (≈ 125 µM)
5 | CC(C)c1noc(/C=C/C(=O)N2CCN(c3nc(OC[C@@]45CCCN4C[C@H](F)C5)nc4c3CCN(c3cccc5ccc(F)c(Cl)c35)C4)C[C@@H]2CC#N)n1 [Compound 128] | 0.01 to 0.1 µM | 0.01 to 0.1 µM | 4.56 | 0.01 µg/mL (≈ 0.0132 µM)
6 | CO[C@H]1CCN(C/C=C/C(=O)N2CCN(c3nc(OC[C@@]45CCCN4C[C@H](F)C5)nc4c(F)c(-c5cccc6cccc(F)c56)ncc34)C[C@@H]2CC#N)C1 [Compound 222] | < 0.01 µM | < 0.01 µM | 2.76 | 91.6 µg/mL (≈ 124 µM)
7 | Cc1cc(/C=C/C(=O)N2CCN(c3nc(OC[C@@]45CCCN4C[C@H](F)C5)nc4c(F)c(-c5cccc6cccc(F)c56)ncc34)C[C@@H]2CC#N)nc(C)n1 [Compound 214] | 0.01 to 0.1 µM | < 0.01 µM | 4.02 | 6.14 µg/mL (≈ 8.37 µM)
8 | CCc1c(F)ccc2cccc(-c3ncc4c(N5CCN(C(=O)/C=C/CN6CCOCC6)[C@@H](CC#N)C5)nc(OC[C@@]56CCCN5C[C@H](F)C6)nc4c3F)c12 [Compound 226] | 0.01 to 0.1 µM | < 0.01 µM | 2.63 | 103 µg/mL (≈ 137 µM)
9 | N#CC[C@H]1CN(c2nc(OC[C@@]34CCCN3C[C@H](F)C4)nc3c(F)c(-c4cccc5ccc(F)c(F)c45)ncc23)CCN1C(=O)/C=C/CN1CC2CC(C1)O2 [Compound 229] | < 0.01 µM | < 0.01 µM | 1.63 | 69.9 µg/mL (≈ 92.3 µM)
10 | N#CC[C@H]1CN(c2nc(OC[C@@]34CCCN3C[C@H](F)C4)nc3c(F)c(-c4cccc5ccc(F)c(F)c45)ncc23)CCN1C(=O)/C=C/CN1C[C@H]2COC[C@H]2C1 [Compound 223] | < 0.01 µM | < 0.01 µM | 3 | 118 µg/mL (≈ 153 µM)
11 | CN1CCC1/C=C/C(=O)N1CCN(c2nc(OC[C@@]34CCCN3C[C@H](F)C4)nc3c(F)c(-c4cccc5ccc(F)c(Cl)c45)ncc23)C[C@@H]1CC#N (stereo partly shown) [Compound 54] | < 0.01 µM | < 0.01 µM | 2.59 | 135 µg/mL (≈ 185 µM)
12 | N#CC[C@H]1CN(c2nc(OC[C@@]34CCCN3C[C@H](F)C4)nc3c(F)c(-c4cccc5ccc(F)c(Cl)c45)ncc23)CCN1C(=O)/C=C/CN1CCOCC1 [Compound 53] | < 0.01 µM | < 0.01 µM | 2.82 | 111 µg/mL (≈ 146 µM)
13 | C#Cc1c(F)ccc2cccc(-c3ncc4c(N5CCN(C(=O)/C=C/c6ccnc(C)n6)[C@@H](CC#N)C5)nc(OC[C@@]56CCCN5C[C@H](F)C6)nc4c3F)c12 [Compound 103, 2-((S)-4-(7-(8-ethynyl-7-fluoronaphthalen-1-yl)-8-fluoro-2-(((2R,7aS)-2-fluorotetrahydro-1H-pyrrolizin-7a(5H)-yl)methoxy)pyrido[4,3-d]pyrimidin-4-yl)-1-((E)-3-(2-methylpyrimidin-4-yl)acryloyl)piperazin-2-yl)acetonitrile] | < 0.01 µM | < 0.01 µM | 3.29 | 10 µg/mL (≈ 13.5 µM)
14 | N#CC[C@H]1CN(c2nc(OC[C@@]34CCCN3C[C@H](F)C4)nc3c(F)c(-c4cccc(Cl)c4C4CC4)ncc23)CCN1C(=O)/C=C/CN1C[C@@H]2C[C@H]1CO2 [Compound 277] | < 0.01 µM | < 0.01 µM | 2.85 | 91 µg/mL (≈ 122 µM)
15 | Cc1nsc(/C=C/C(=O)N2CCN(c3nc(OCC45CCCN4CCC5)nc4c(F)c(-c5cccc6ccc(F)c(Cl)c56)ncc34)C[C@@H]2CC#N)n1 [Compound 156] | < 0.01 µM | < 0.01 µM | 2.78 | 84.5 µg/mL (≈ 114 µM)
16 | CC(C)c1noc(/C=C/C(=O)N2CCN(c3nc(OC[C@]45CCCN4C[C@H](F)C5)nc4c3CCN(c3cccc5ccc(F)c(Cl)c35)C4)C[C@@H]2CC#N)n1 [Compound 131] | 0.01 to 0.1 µM | 0.01 to 0.1 µM | 4.96 | 0.01 µg/mL (≈ 0.0132 µM)
17 | N#CC[C@H]1CN(c2nc(OC[C@@]34CCCN3C[C@H](F)C4)nc3c(F)c(-c4cccc(Cl)c4C(F)(F)F)ncc23)CCN1C(=O)/C=C/CN1[C@@H]2CC[C@H]1COC2 [Compound 111, 2-((S)-1-((E)-4-((1R,5S)-3-oxa-8-azabicyclo[3.2.1]octan-8-yl)but-2-enoyl)-4-(7-(3-chloro-2-(trifluoromethyl)phenyl)-8-fluoro-2-(((2R,7aS)-2-fluorotetrahydro-1H-pyrrolizin-7a(5H)-yl)methoxy)pyrido[4,3-d]pyrimidin-4-yl)piperazin-2-yl)acetonitrile] | < 0.01 µM | < 0.01 µM | 3.23 | 133 µg/mL (≈ 169 µM)
18 | N#CC[C@H]1CN(c2nc(OC[C@@]34CCCN3C[C@H](F)C4)nc3c(F)c(-c4cccc(Cl)c4C(F)(F)F)ncc23)CCN1C(=O)/C=C/CN1CCCOCC1 [Compound 113, 2-((S)-1-((E)-4-(1,4-oxazepan-4-yl)but-2-enoyl)-4-(7-(3-chloro-2-(trifluoromethyl)phenyl)-8-fluoro-2-(((2R,7aS)-2-fluorotetrahydro-1H-pyrrolizin-7a(5H)-yl)methoxy)pyrido[4,3-d]pyrimidin-4-yl)piperazin-2-yl)acetonitrile] | < 0.01 µM | < 0.01 µM | 2.84 | 124 µg/mL (≈ 160 µM)
19 | N#CC[C@H]1CN(c2nc(OCC34CCCN3CCC4)nc3c2CCN(c2cccc4cccc(Cl)c24)C3)CCN1C(=O)/C=C/c1ccncn1 [Example 10, (S,E)-2-(4-(7-(8-chloronaphthalen-1-yl)-2-((hexahydro-1H-pyrrolizin-7a-yl)methoxy)-5,6,7,8-tetrahydropyrido[3,4-d]pyrimidin-4-yl)-1-(3-(pyrimidin-4-yl)acryloyl)piperazin-2-yl)acetonitrile] | < 0.01 µM | < 0.01 µM | 2.93 | 99 µg/mL (≈ 143 µM)
20 | CCc1noc(/C=C/C(=O)N2CCN(c3nc(OCC45CCCN4CCC5)nc4c3CCN(c3cccc5cccc(Cl)c35)C4)C[C@@H]2CC#N)n1 [Compound 25] | > 0.5 µM | ≥ 0.5 µM | 4.9 | 0.01 µg/mL (≈ 0.0141 µM)
21 | N#CC[C@H]1CN(c2nc(OC[C@@]34CCCN3C[C@H](F)C4)nc3c2CCN(c2cccc4cccc(Cl)c24)C3)CCN1C(=O)/C=C/CN1CCOCC1 [Compound 49] | < 0.01 µM | < 0.01 µM | 3.72 | 45.2 µg/mL (≈ 62 µM)
22 | N#CC[C@H]1CN(c2nc(OC[C@@]34CCCN3C[C@H](F)C4)nc3c(F)c(-c4cccc5ccc(F)c(Cl)c45)ncc23)CCN1C(=O)/C=C/CN1C[C@@H]2C[C@H]1CO2 [Example 71, 2-((S)-1-((E)-4-((1S,4S)-2-oxa-5-azabicyclo[2.2.1]heptan-5-yl)but-2-enoyl)-4-(7-(8-chloro-7-fluoronaphthalen-1-yl)-8-fluoro-2-(((2R,7aS)-2-fluorotetrahydro-1H-pyrrolizin-7a(5H)-yl)methoxy)pyrido[4,3-d]pyrimidin-4-yl)piperazin-2-yl)acetonitrile] | < 0.01 µM | < 0.01 µM | 2.9 | 88.9 µg/mL (≈ 115 µM)
